The record followed here is US12433876B2, “Septin inhibitors for treatment of cancers” (UNIVERSITY OF ROCHESTER, priority 2019, dated 2025).

One experiment concerns PANC-1 cell line. The experiment can be described thus: RNA-Seq whole transcriptome analysis, PANC-1. It counts as cell-based, human. The following applies: 10 nM Afatinib, 1 μM UR214-9.
The test system of a further experiment is EGFR. The experiment can be described thus: Western blot of EGFR expression. The class given is cell-based. The following applies: UR214-7 33 μM, UR214-9 33 μM; 24 hours. The procedure:
Cell lines, Culture, and Reagents. Cells were maintained in either DMEM (SKOV-3, KLE, OVCAR-3, OVCAR8-C5 and IGROV-1) or RPMI-1640 (ECC-1 and HCH-1), supplemented with 10% fetal calf serum (or 20% for OVCAR-3), penicillin (100 units/mL), and streptomycin (100 μg/mL) at 37° C. with 5% CO2 in a humidified incubator. Antibodies were purchased from Abcam (septin-2; ab179436) and Cell Signaling Technology; ERK (9102), p-ERK (4370), -actin (3700), u-Tubulin (2144), EGFR (4267) and HER2 (4290). FCF was purchased from Abcam. All other chemicals were from Sigma Aldrich. Synthesis of Derivaties. […] The reaction was monitored using thin-layer chromatography plates with DCM-MeOH or pure ethyl acetate as eluent. Spots were monitored in a UV chamber. […] Quantitative Real-Time PCR. […] Quantitative real-time PCR was conducted using QuantStudio 12 K Flex Real-Time PCR System (ABI) and the Taqman Gene Expression Assay (ABI) consisting of the FAM-labeled probes as follows: SEPT2 (Hs01565417_ml); WFDC2 (Hs00899484_ml); TBP (Hs00427620_ml) or B2M (Hs00187842_ml), which was used as reference for normalization. […] Cell viability, proliferation, and cellular apoptosis were measured using the MTS (Promega), BrdU cell proliferation (Cell Signaling Technology), and Caspase-Glo 3/7 apoptosis detection (Promega) assays, following the respective manufacturer's recommendations with suitable modification. […]

In the case of `O=C(Nc1cc(Cl)nc(Cl)c1)Nc1cccc(SC(F)(F)F)c1F` [UR214-9], the “significantly differentially expressed genes versus control” value in the experiment with PANC-1 cell line is “no differentially expressed genes”. For the same molecule, the EGFR expression entry with EGFR is reported as “did not have an effect”.
